The values below come from patent US20190152962A1, “CYCLOPROPYL DERIVATIVES AS ROR-GAMMA MODULATORS” (CADILA HEALTHCARE LIMITED, priority 2016, published 2019).

The target of one assay is T1, full length human RORγt (Homo sapiens, UniProt P51449).
T1 construct: full length human RORγt together in COS-7 cells; expressed in transfected cells; host or cells: COS-7
T1 sequence (P51449 1-497 isoform P51449-2): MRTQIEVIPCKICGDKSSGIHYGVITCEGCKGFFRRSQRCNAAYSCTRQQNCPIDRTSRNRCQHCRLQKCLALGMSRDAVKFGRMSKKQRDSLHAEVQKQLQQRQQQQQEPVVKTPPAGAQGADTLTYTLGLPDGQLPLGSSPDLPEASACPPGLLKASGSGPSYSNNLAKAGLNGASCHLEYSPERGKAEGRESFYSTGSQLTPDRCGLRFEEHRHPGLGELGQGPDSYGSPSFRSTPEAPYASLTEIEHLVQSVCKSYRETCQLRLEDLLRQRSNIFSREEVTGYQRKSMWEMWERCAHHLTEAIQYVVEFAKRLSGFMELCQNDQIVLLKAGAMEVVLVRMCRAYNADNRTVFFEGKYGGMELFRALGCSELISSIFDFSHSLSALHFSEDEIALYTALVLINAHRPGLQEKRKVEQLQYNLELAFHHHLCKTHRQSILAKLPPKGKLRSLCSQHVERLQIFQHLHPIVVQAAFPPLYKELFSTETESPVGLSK
The assay is described as follows: 5×RORE based luciferase assay. Format: cell-based. The conditions noted are these: COS-7 cells transfected with 5×RORE-Luc and hRORγt, 18-20 h treatment. As to the method: Human RORγt (hRORγt) inhibitors were screened in RORE (RORγt Response Element) based Luciferase assay by transient transfection of 5×RORE (5 tandem repeats of RORγt Response Element) and full length human RORγt together in COS-7 cells. COS-7 cells were maintained as monolayer in complete DMEM (High Glucose) medium in presence of 2 mM Glutamin and 1× Sodium Pyruvate. Day before transfection, 15000 cells were seeded in 96 well cell culture plate in 100 μl antibiotic free medium and incubated at 37° C. in 5% CO2 containing humidified chamber O/N. Prior to transfection, cells were fed with fresh complete growth medium and incubated until the addition of transfection complex. Transfection complex for the required numbers of wells were prepared from pGL2-promoter-5×RORE-Luc plasmid, pcDNA3.1 (+)-hRORγt expression plasmid, pβ-GAL plasmid (transfection control), and Lipofectamine 3000 (Invitrogen). 50 μl of transfection complex were added in 100 μl of complete medium to respective wells, mixed gently and plate was incubated for 5-6 h at 37° C. in 5% CO2 containing humidified chamber. After 5 h of transfection, content of the wells were aspirated and cells were treated with increasing concentration of RORγt inverse agonist in medium devoid of serum with a final DMSO concentration of 0.2% for 18-20 h at 37° C. in 5% CO2 containing humidified chamber. Next day, cells were lysed and the lysates were assayed for luciferase and β-GAL activity using Promega's luciferase assay system and an in-house made β-GAL assay buffer respectively. Luciferase signals were normalized with β-GAL and % activity was determined with respect to that of 10 nM control ligand.
IC50 of selected compounds were then determined by nonlinear regression analysis of % activity, plotted against compound concentration (Table 4).

For assay [1], the system named is secreted IL-17 in peripheral blood mononuclear cells (PBMCs). Put plainly: Human IL-17 inhibition assay. The following applies: PBMC, anti-CD3/anti-CD28, 72 h, read-out: IL17 IC50. Type of assay: cell-based. On the procedure: Peripheral blood mononuclear cells (PBMCs) were isolated from healthy volunteers and subjected to T cell polarization assay. Two million PBMCs were placed on anti-CD3 (Biolegend, US) coated 96-well plates and 1 μg/mL of anti-CD28 (Biolegend, US) was added along with RORγt inhibitors or the vehicle control and incubated at 37° C. and 5% CO2 for 72 h. At the end of incubation time, the supernatant was collected and analyzed for secreted IL-17 using sandwich enzyme immunoassay (Mabtech AB, Sweden). The results were analyzed using Graphpad Prism and the half-maximal inhibitory concentrations (IC50) of the test compounds were derived (Table 4).

As to `CCS(=O)(=O)c1ccc(CC(=O)Nc2cc(Cl)c(C3(c4noc(-c5ccc(Cl)cc5)n4)CC3)c(Cl)c2)cn1` [Example 72, N-(3,5-dichloro-4-(1-(5-(4-chlorophenyl)-1,2,4-oxadiazol-3-yl)cyclopropyl)phenyl)-2-(6-(ethylsulfonyl)pyridin-3-yl)acetamide], the half-inhibitory concentration (IC50) (in general, the point on the concentration scale where inhibition reaches its midpoint) was 20 nM on full length human RORγt and 20.8 nM in assay [1]. With `CCS(=O)(=O)c1ccc(CC(=O)Nc2cc(Cl)c(C3(c4noc(-c5ccc(F)c(Cl)c5)n4)CC3)c(Cl)c2)cn1` [Example 70, N-(3,5-dichloro-4-(1-(5-(3-chloro-4-fluorophenyl)-1,2,4-oxadiazol-3-yl)cyclopropyl)phenyl)-2-(6-(ethylsulfonyl)pyridin-3-yl)acetamide], the results for the IC50 (against full length human RORγt; in assay [1]) were 17 nM and 22 nM, respectively. Consider `CCS(=O)(=O)c1ccc(CC(=O)Nc2cc(Cl)c(C3(c4noc(C(C)C)n4)CC3)c(Cl)c2)cc1` [Example 23, N-(3,5-dichloro-4-(1-(5-isopropyl-1,2,4-oxadiazol-3-yl)cyclopropyl)phenyl)-2-(4-(ethylsulfonyl)phenyl)acetamide], for which the figures for the IC50 (on full length human RORγt; in assay [1]) were 1.4 nM and 21 nM, respectively. For `CCS(=O)(=O)c1ccc(CC(=O)Nc2cc(Cl)c(C3(c4noc(-c5ccc(Cl)cc5Cl)n4)CC3)c(Cl)c2)cc1` [Example 12, N-(3,5-dichloro-4-(1-(5-(2,4-dichlorophenyl)-1,2,4-oxadiazol-3-yl)cyclopropyl)phenyl)-2-(4-(ethylsulfonyl)phenyl)acetamide], the figures for the IC50 (against full length human RORγt; in assay [1]) were 5.9 nM and 10.6 nM, respectively. On to `CCS(=O)(=O)c1ccc(CC(=O)Nc2cc(Cl)c(C3(c4noc(-c5ccc(F)cc5)n4)CC3)c(Cl)c2)nc1` [Example 41, N-(3,5-dichloro-4-(1-(5-(4-fluorophenyl)-1,2,4-oxadiazol-3-yl)cyclopropyl)phenyl)-2-(5-(ethylsulfonyl)pyridin-2-yl)acetamide], for which the IC50 on full length human RORγt was 0.76 nM; in assay [1], 15.5 nM. In the case of `CCS(=O)(=O)c1ccc(CC(=O)Nc2cc(Cl)c(C3(c4ncc(-c5ccc(Cl)cc5)o4)CC3)c(Cl)c2)cc1` [Example 39, N-(3,5-dichloro-4-(1-(5-(4-chlorophenyl)oxazol-2-yl)cyclopropyl)phenyl)-2-(4-(ethylsulfonyl)phenyl)acetamide], the IC50 at full length human RORγt is 22.5 nM; in assay [1] it was 22 nM. Take `CCS(=O)(=O)c1cnc(CC(=O)Nc2cc(Cl)c(C3(c4nc5ccc(F)cc5o4)CC3)c(Cl)c2)cn1` [Example 78, N-(3,5-dichloro-4-(1-(6-fluorobenzo[d]oxazol-2-yl)cyclopropyl)phenyl)-2-(5-(ethylsulfonyl)pyrazin-2-yl)acetamide]: the IC50 was 7.9 nM on full length human RORγt and 47.3 nM in assay [1]. As to `CCS(=O)(=O)c1ccc(CC(=O)Nc2cc(Cl)c(C3(c4noc(-c5ccc(C)cc5)n4)CC3)c(Cl)c2)cc1` [Example 4, N-(3,5-dichloro-4-(1-(5-(p-tolyl)-1,2,4-oxadiazol-3-yl)cyclopropyl)phenyl)-2-(4-(ethylsulfonyl)phenyl)acetamide], the IC50 against full length human RORγt is 1.46 nM; in assay [1], 15 nM. Turning to `CCS(=O)(=O)c1ccc(CC(=O)Nc2cc(Cl)c(C3(c4noc(-c5ccc(Cl)cc5)n4)CC3)c(Cl)c2)cc1` [Example 13, N-(3,5-dichloro-4-(1-(5-(4-chlorophenyl)-1,2,4-oxadiazol-3-yl)cyclopropyl)phenyl)-2-(4-(ethylsulfonyl)phenyl)acetamide], the IC50 against full length human RORγt came to 8.9 nM; in assay [1], 27.2 nM. As to `CCS(=O)(=O)c1ccc(CC(=O)Nc2cc(Cl)c(C3(c4noc(-c5ccc(F)cc5F)n4)CC3)c(Cl)c2)cn1` [Example 69, N-(3,5-dichloro-4-(1-(5-(2,4-difluorophenyl)-1,2,4-oxadiazol-3-yl)cyclopropyl)phenyl)-2-(6-(ethylsulfonyl)pyridin-3-yl)acetamide], the IC50 on full length human RORγt came out at 6.4 nM; in assay [1], 22.4 nM.

As to `CCS(=O)(=O)c1ccc(CC(=O)Nc2cc(Cl)c(C3(c4noc(-c5ccc(C#N)cc5)n4)CC3)c(Cl)c2)cn1` [Example 73, N-(3,5-dichloro-4-(1-(5-(4-cyanophenyl)-1,2,4-oxadiazol-3-yl)cyclopropyl)phenyl)-2-(6-(ethylsulfonyl)pyridin-3-yl)acetamide], the IC50 turned out to be 17.6 nM on full length human RORγt and 23.4 nM in assay [1]. On the same counts, the results for `CCS(=O)(=O)c1ccc(CC(=O)Nc2cc(Cl)c(C3(c4noc(-c5ccc(F)cc5F)n4)CC3)c(Cl)c2)cc1` [Example 7, N-(3,5-dichloro-4-(1-(5-(2,4-difluorophenyl)-1,2,4-oxadiazol-3-yl)cyclopropyl)phenyl)-2-(4-(ethylsulfonyl)phenyl)acetamide] are 8.7 nM and 10.4 nM. Regarding `CCS(=O)(=O)c1ccc(CC(=O)Nc2cc(C)c(C3(c4noc(-c5ccc(F)cc5)n4)CC3)c(C)c2)cc1` [Example 33, 2-(4-(ethylsulfonyl)phenyl)-N-(4-(1-(5-(4-fluorophenyl)-1,2,4-oxadiazol-3-yl)cyclopropyl)-3,5-dimethylphenyl)acetamide], the IC50 at full length human RORγt came to 20.2 nM; in assay [1] it was 24 nM. Consider `CCS(=O)(=O)c1ccc(CC(=O)Nc2cc(Cl)c(C3(c4noc(-c5ccc(Cl)c(Cl)c5)n4)CC3)c(Cl)c2)cc1` [Example 11, N-(3,5-dichloro-4-(1-(5-(3,4-dichlorophenyl)-1,2,4-oxadiazol-3-yl)cyclopropyl)phenyl)-2-(4-(ethylsulfonyl)phenyl)acetamide], for which the results for the IC50 (on full length human RORγt; in assay [1]) were 15.9 nM and 14.7 nM, respectively. Take `CCS(=O)(=O)c1ccc(CC(=O)Nc2cc(F)c(C3(c4noc(-c5ccc(C(F)(F)F)cc5)n4)CC3)c(Cl)c2)cc1` [Example 31, N-(3-chloro-5-fluoro-4-(1-(5-(4-(trifluoromethyl)phenyl)-1,2,4-oxadiazol-3-yl)cyclopropyl)phenyl)-2-(4-(ethylsulfonyl)phenyl)acetamide]: the IC50 was determined as 12.6 nM at full length human RORγt and 50 nM in assay [1]. As for `CCS(=N)(=O)c1ccc(CC(=O)Nc2cc(Cl)c(C3(c4noc(-c5ccc(F)cc5)n4)CC3)c(Cl)c2)cc1` (stereo not shown) [Example 61, N-(3,5-dichloro-4-(1-(5-(4-fluorophenyl)-1,2,4-oxadiazol-3-yl)cyclopropyl)phenyl)-2-(4-(ethylsulfonimidoyl)phenyl)acetamide], the IC50 was determined as 9.2 nM on full length human RORγt and 35 nM in assay [1]. As for `CCS(=O)(=O)c1ccc(CC(=O)Nc2cc(Cl)c(C3(c4ncc(-c5ccc(F)cc5)o4)CC3)c(Cl)c2)cc1` [Example 38, N-(3,5-dichloro-4-(1-(5-(4-fluorophenyl)oxazol-2-yl)cyclopropyl)phenyl)-2-(4-(ethylsulfonyl)phenyl)acetamide], the IC50 against full length human RORγt was 1.5 nM; in assay [1], 23 nM. On to `CCS(=O)(=O)c1ccc(CC(=O)Nc2cc(Cl)c(C3(c4noc(-c5ccc(C#N)cc5)n4)CC3)c(Cl)c2)cc1` [Example 14, N-(3,5-dichloro-4-(1-(5-(4-cyanophenyl)-1,2,4-oxadiazol-3-yl)cyclopropyl)phenyl)-2-(4-(ethylsulfonyl)phenyl)acetamide], for which the values for the IC50 (on full length human RORγt; in assay [1]) were 1.3 nM and 9.5 nM, respectively. For the compound `CCS(=O)(=O)c1ccc(CC(=O)Nc2cc(Cl)c(C3(c4noc(-c5ccc(F)cc5)n4)CC3)c(Cl)c2)cc1` [Example 1, N-(3,5-dichloro-4-(1-(5-(4-fluorophenyl)-1,2,4-oxadiazol-3-yl)cyclopropyl)phenyl)-2-(4-(ethylsulfonyl)phenyl)acetamide], the IC50 in assay [1] was found to be 6.6 nM.
